Experiments:
Format in all cases: in vivo, Wistar rats
[1] = test system: gut microbiota; experiment: Gut microbiota structure in rat feces by 454 pyrosequencing and multivariate statistics (PCoA, MANOVA, RDA, Shannon-Wiener index)
Excerpt: (§1) These examples use Wistar rats (8 weeks old, male) as testing subjects and berberine as a representative compound. 40 Wistar rats were acclimatized for two weeks and were subsequently randomly divided into four groups: normal diet group (NCD), normal diet plus berberine treatment (NCD+BBR), high fat diet (HFD), and high fat diet plus berberine treatment (HFD+BBR). Each group continued for another 18 weeks. During these 18 weeks, the NCD+BBR group received intragastric administration of berberine at stated levels. Feces samples from each animal were collected at various time points. 454 pyrosequencing was performed to analyze gut microbiota structure. Gas chromatography was used to assay the short-chain fatty acid level of the feces. In addition, weight, food intake, insulin sensitivity, systemic inflammation levels were monitored and measured during the 18-week period.
The gut microbiota populations in rats from all four experimental groups were analyzed by 454 pyrosequencing and multivariate statistical analyses. […] Diet also exerted statistically significant influence on gut microbiota population.
268 berberine-related OTU were identified by redundancy analysis (RDA) and the detailed results are shown in FIG. 2, TABLE 1, and TABLE 2. 93 OTU (SEQ_ID_NO 1-93) (TABLE 1) are enriched by berberine, while 175 OTU (SEQ_ID_NO 94-268) (TABLE 2) were suppressed or eliminated.
The taxonomy of these 268 OTU was analyzed using RDP classifier with representative sequence of the OTU. […] Among them, Blautia, Allobaculum, Prevotella, Bacteroides, and Butyricimonas are relatively abundant and are capable of producing short-chain fatty acid.

[2] = test system: gut short-chain fatty acid; experiment: Short-chain fatty acid level in rat feces by gas chromatography; conditions: oral 100 mg/kg body weight, FIG. 3
Excerpt: as §1, with “period. The levels of short-chain fatty acid (including acetic acid, propionic acid, butyric acid, valeric acid, isobutyric acid, isovaleric acid, etc.) in rat feces were assayed by gas chromatography. […] Therefore, berberine is capable of increasing gut short-chain fatty acid level in rats fed normal diet or high fat diet.” for “period.”

[3] = Obesity phenotype of rats fed normal or high fat diet: body weight, adiposity index, food intake, liver and pancreas
Excerpt: as §1, with “period. The body weight of all four groups of rats were monitored during the duration of the experiments and analyzed. […] At the end of experiment, animals were euthanized. Fasting body weight, epididymal fat weight, and perirenal fat weight were measured.” for “period.”

[4] = Insulin sensitivity in rats: FBG, FINS, HOMA-IR, oral glucose tolerance test, intraperitoneal insulin tolerance test
Excerpt: as §1, with “period. The fasting blood glucose (FBG) and fasting insulin in serum (FINS) were measured for all four experimental groups of rats. […] In order to further examine insulin sensitivity, oral glucose tolerance test and intraperitoneal injection of insulin tolerance test were conducted, and the results are shown in FIG. 5D, and 5E, respectively.” for “period.”

[5] = Systemic inflammation level in rats: serum LBP, MCP-1, leptin, adiponectin
Excerpt: as §1
In order to evaluate the systemic inflammation levels of all four experimental groups of rats, the serum levels of lipopolysaccharide (LPS)-binding protein (LBP), monocyte chemoattractant protein-1 (MCP-1), leptin, and adiponectin were measured, and results are shown in FIG. 6.
MCP-1 is a pro-inflammatory cytokine that functions in chemotaxis and activation of monocytes/macrophages. Occurrence and development of many inflammation-related diseases are closely related to MCP-1, including atherosclerosis, obesity, type 2 diabetes, arthritis, sepsis, and chronic bacterial infection.
Leptin is a hormone secreted by adipose tissue, and broadly participates in lipid, glucose, and energy metabolism.
The adiponectin levels in all four groups were analyzed. […] Therefore, berberine improves gut microbiota population, reduces LPB, MCP-1, and lpetin level, and increases adiponectin secretion. TABLE 1 16S rRNA gene V3 region sequence of those bacteria enriched by berberine.

## COc1ccc2cc3[n+](cc2c1OC)CCc1cc2c(cc1-3)OCO2 [berberine]
[1]; FIG. 2
  number of berberine-related OTU identified (RDA): 268 OTU
[1]; NCD and HFD rats, FIG. 1A
  share of overall changes in the gut microbiota population accounted for (PCoA, unweighted Unifrac distance): 12.6%
[1]; P<0.05, FIG. 1C
  diversity of gut microbiota population (Shannon-Wiener index): reduces diversity of gut microbiota population at a statistically significant level
[1]; SEQ_ID_NO 1-93, TABLE 1
  number of OTU enriched (RDA): 93 OTU
[1]; SEQ_ID_NO 94-268, TABLE 2
  number of OTU suppressed or eliminated (RDA): 175 OTU
[1]; normal diet group and high fat diet group
  effect on gut microbiota structure (PCoA): altered gut microbiota structure in both the normal diet group and high fat diet group at a statistically significant level
[2]
  effect on levels of acetic acid and propionic acid in feces: especially pronounced
[2]; rats fed normal diet or high fat diet
  level of gut short-chain fatty acid in feces: may increase the level of gut short-chain fatty acid
[3]; 100 mg/kg, entire experiment, P>0.05
  body weight of HFD+BBR group versus normal diet group: no statistically significant difference
[3]; 18 weeks
  effect on liver and pancreas / side effect of long term use: no obvious side effect
[3]; 18 weeks, HFD, FIG. 4B
  adiposity index ([epididymal fat weight+perirenal fat]/fasting weight×100): significantly reduces adiposity index
[3]; NCD+BBR, FIG. 4
  body weight of rats fed a normal diet: influences, to a certain degree
[3]; intragastric 100 mg/kg, 18 weeks, especially rats fed high fat diet, FIG. 4A
  body weight growth: effectively limits rat body weight growth
[3]; oral 100 mg/kg body weight, especially rats fed a high fat diet, FIG. 4C
  food intake (calorie intake): significant inhibitory effect on rat food intake
[4]; 100 mg/kg body weight, 18 weeks HFD, FIG. 5D
  oral glucose tolerance test: significantly prevented the loss of glucose tolerance
[4]; 100 mg/kg body weight, 18 weeks HFD, FIG. 5E
  intraperitoneal injection of insulin tolerance test: significantly prevented the loss of glucose tolerance and insulin tolerance
[4]; 100 mg/kg body weight, HFD+BBR, FIG. 5B
  fasting insulin in serum (FINS): significantly reduced
[4]; 100 mg/kg body weight, HFD, P<0.05, FIG. 5C
  HOMA insulin resistance index: prevented the formation of insulin resistance
[4]; HFD rats, P<0.05, FIG. 5A
  fasting blood glucose (FBG) reduction: significant
[4]; NCD and HFD rats, FIG. 5A
  fasting blood glucose (FBG): effectively reduced FBG
[5]; 100 mg/kg, HFD, P<0.05, FIG. 6A
  serum lipopolysaccharide (LPS)-binding protein (LBP): significantly abrogated the increase of serum LBP
[5]; HFD rats, FIG. 6B
  serum MCP-1 level: significantly reduced
[5]; HFD+BBR versus NCD
  serum MCP-1 level versus NCD group: even lower than that of NCD group
[5]; especially rats fed a HFD, P<0.05, FIG. 6C
  serum leptin level: significantly reduced the serum leptin level
[5]; rats fed a HFD, P<0.01, FIG. 6D
  adiponectin level normalized against body fat weight: significantly increased adiponectin level

From patent US10285984B2, “Methods and compositions for improving gut microbiota population” (SHANGHAI JIAO TONG UNIVERSITY, priority 2012, dated 2019)
